{
  "source": "ChEMBL document CHEMBL3046274",
  "about": "“Toxicity of imidacloprid to developmental stages of Rhynchophorus ferrugineus (Curculionidae: Coleoptera): Laboratory and field tests” (Crop Prot, 2006)",
  "format_in_all_cases": "functional",
  "key": {"[1]": {"tested_on": "Rhynchophorus ferrugineus", "assay": "Pesticidal activity against adult Rhynchophorus ferrugineus (red palm weevil) assessed as time required for 100% mortality at 1.5 ml/l administered topically"}, "[2]": {"tested_on": "Rhynchophorus ferrugineus", "assay": "Pesticidal activity against adult Rhynchophorus ferrugineus (red palm weevil) assessed as mortality at 0.5 ppm, po at 48 hr post-treatment relative to control"}, "[3]": {"tested_on": "Rhynchophorus ferrugineus", "assay": "Pesticidal activity against Rhynchophorus ferrugineus (red palm weevil) larvae assessed as mortality at 300 ppm administered topically at 48 hr post-treatment"}, "[4]": {"tested_on": "Rhynchophorus ferrugineus", "assay": "Contact toxicity against Rhynchophorus ferrugineus (red palm weevil) adults assessed as time required for 50% mortality at 1.5 ml/l for 5 min"}, "[5]": {"tested_on": "Rhynchophorus ferrugineus", "assay": "Pesticidal activity against Rhynchophorus ferrugineus (red palm weevil) cocoon assessed as mortality at 1.5 ppm administered by dipping for 3 min measured at 72 hr post-treatment relative to control"}, "[6]": {"tested_on": "Rhynchophorus ferrugineus", "assay": "Pesticidal activity against Rhynchophorus ferrugineus (red palm weevil) larvae assessed as mortality at 100 ppm administered topically at 72 hr post-treatment"}, "[7]": {"tested_on": "Rhynchophorus ferrugineus", "assay": "Pesticidal activity against Rhynchophorus ferrugineus (red palm weevil) cocoon assessed as mortality at 20 ppm administered by dipping for 3 min measured at 48 hr post-treatment relative to control"}, "[8]": {"tested_on": "Rhynchophorus ferrugineus", "assay": "Pesticidal activity against Rhynchophorus ferrugineus (red palm weevil) cocoons assessed as time required for total mortality at 2.5 ml/l administered by dipping for 10 secs"}, "[9]": {"tested_on": "Rhynchophorus ferrugineus", "assay": "Pesticidal activity against Rhynchophorus ferrugineus (red palm weevil) cocoons assessed as mortality at 3.5 ml/l administered by dipping for 3 min measured within 3 days"}, "[10]": {"tested_on": "Rhynchophorus ferrugineus", "assay": "Pesticidal activity against Rhynchophorus ferrugineus (red palm weevil) cocoon assessed as mortality at 2 ppm administered by dipping for 3 min measured at 90 hr post-treatment relative to control"}, "[11]": {"tested_on": "Rhynchophorus ferrugineus", "assay": "Pesticidal activity against Rhynchophorus ferrugineus (red palm weevil) cocoons assessed as time required for total mortality at 2.5 ml/l administered by dipping for 5 secs"}, "[12]": {"tested_on": "Rhynchophorus ferrugineus", "assay": "Pesticidal activity against Rhynchophorus ferrugineus (red palm weevil) cocoon assessed as mortality at 1 ppm administered by dipping for 3 min measured at 24 hr post-treatment relative to control"}, "[13]": {"tested_on": "Rhynchophorus ferrugineus", "assay": "Pesticidal activity against Rhynchophorus ferrugineus (red palm weevil) larvae assessed as mortality at 1 ppm, po at 48 hr post-treatment relative to control"}, "[14]": {"tested_on": "Rhynchophorus ferrugineus", "assay": "Pesticidal activity against adult Rhynchophorus ferrugineus (red palm weevil) assessed as mortality at 100 ppm administered topically at 18 hr post-treatment"}, "[15]": {"tested_on": "Rhynchophorus ferrugineus", "assay": "Contact toxicity against Rhynchophorus ferrugineus (red palm weevil) adults assessed as time required for 100% mortality at 1.5 ml/l for 2 min"}, "[16]": {"tested_on": "Rhynchophorus ferrugineus", "assay": "Pesticidal activity against Rhynchophorus ferrugineus (red palm weevil) larvae assessed as mortality at 300 ppm administered topically at 72 hr post-treatment"}, "[17]": {"tested_on": "Rhynchophorus ferrugineus", "assay": "Pesticidal activity against Rhynchophorus ferrugineus (red palm weevil) cocoon assessed as mortality at 1.5 ppm administered by dipping for 3 min measured at 24 hr post-treatment relative to control"}, "[18]": {"tested_on": "Rhynchophorus ferrugineus", "assay": "Pesticidal activity against Rhynchophorus ferrugineus (red palm weevil) cocoon assessed as mortality at 1.5 ppm administered by dipping for 3 min measured at 90 hr post-treatment relative to control"}, "[19]": {"tested_on": "Rhynchophorus ferrugineus", "assay": "Pesticidal activity against adult Rhynchophorus ferrugineus (red palm weevil) assessed as mortality at 1000 ppm administered topically at 72 hr post-treatment"}},
  "data": [
    {"smiles": "O=[N+]([O-])/N=C1\\NCCN1Cc1ccc(Cl)nc1", "note": "[IMIDACLOPRID]", "values": [
      {"measurement": "Time", "setting": "[1]", "value": 11.5, "unit": "days"},
      {"measurement": "Activity", "setting": "[2]", "value": 38.9, "unit": "%"},
      {"measurement": "Activity", "setting": "[3]", "value": 0, "unit": "%"},
      {"measurement": "Time", "setting": "[4]", "value": 4.3, "unit": "days"},
      {"measurement": "Activity", "setting": "[5]", "value": 0, "unit": "%"},
      {"measurement": "Activity", "setting": "[6]", "value": 0, "unit": "%"},
      {"measurement": "Activity", "setting": "[7]", "value": 44.4, "unit": "%"},
      {"measurement": "Time", "setting": "[8]", "value": 9.6, "unit": "days"},
      {"measurement": "Activity", "setting": "[9]", "value": 76.7, "unit": "%"},
      {"measurement": "Activity", "setting": "[10]", "value": 72.2, "unit": "%"},
      {"measurement": "Time", "setting": "[11]", "value": 9.5, "unit": "days"},
      {"measurement": "Activity", "setting": "[12]", "value": 0, "unit": "%"},
      {"measurement": "Activity", "setting": "[13]", "value": 38.9, "unit": "%"},
      {"measurement": "Activity", "setting": "[14]", "value": 0, "unit": "%"},
      {"measurement": "Time", "setting": "[15]", "value": 18, "unit": "days"},
      {"measurement": "Activity", "setting": "[16]", "value": 38.9, "unit": "%"},
      {"measurement": "Activity", "setting": "[17]", "value": 0, "unit": "%"},
      {"measurement": "Activity", "setting": "[18]", "value": 44.4, "unit": "%"},
      {"measurement": "Activity", "setting": "[19]", "value": 100, "unit": "%"}
    ]}
  ]
}
